In ChEMBL document CHEMBL5303762, “Data for DCP probe BI-8668” (2023):
Active and inactive are the calls of the source. The rule behind the calls is not given here.

Tests used:
[1] = molecular target: Beta-2 adrenergic receptor (Homo sapiens) (UniProt P07550); experiment: BETA2/HUM Eurofins SafetyScreen44 (BI); details: filed as antagonist, Compound concentration 10.0 uM
[2] = molecular target: T1, Alpha-1A adrenergic receptor (Homo sapiens) (UniProt P35348); experiment: ALPHA1AH_ANTAG Eurofins SafetyScreen44 (BI); details: filed as antagonist, Compound concentration 10.0 uM
T1 sequence (whole entry): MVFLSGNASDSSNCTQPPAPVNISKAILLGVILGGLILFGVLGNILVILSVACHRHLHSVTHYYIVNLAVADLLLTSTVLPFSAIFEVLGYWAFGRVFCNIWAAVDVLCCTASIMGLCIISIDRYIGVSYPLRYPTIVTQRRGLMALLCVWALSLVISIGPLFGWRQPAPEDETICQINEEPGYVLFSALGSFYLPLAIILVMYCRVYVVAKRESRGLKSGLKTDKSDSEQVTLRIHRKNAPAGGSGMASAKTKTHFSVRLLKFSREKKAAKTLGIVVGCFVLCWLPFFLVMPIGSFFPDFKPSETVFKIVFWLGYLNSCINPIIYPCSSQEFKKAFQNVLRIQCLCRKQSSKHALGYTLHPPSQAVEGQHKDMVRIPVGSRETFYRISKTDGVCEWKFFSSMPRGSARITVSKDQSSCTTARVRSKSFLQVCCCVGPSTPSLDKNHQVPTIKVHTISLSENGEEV

[3] = molecular target: Histamine H1 receptor (Homo sapiens) (UniProt P35367); experiment: H1/PYRIL/HS Eurofins SafetyScreen44 (BI); details: Compound concentration 10.0 uM
[4] = molecular target: voltage-gated potassium channel (IKs; KCNQ1/KCNE1 as curated) (Rattus norvegicus, UniProt P15383+Q9Z0N7); experiment: K+/VOLT/RA Eurofins SafetyScreen44 (BI); assay type: protein-complex assay; details: compound concentration 10 uM, read-out: % Ctrl
[5] = molecular target: Sodium-dependent noradrenaline transporter (Homo sapiens) (UniProt P23975); experiment: NEUP/H Eurofins SafetyScreen44 (BI); details: Compound concentration 10.0 uM
[6] = molecular target: Delta-type opioid receptor (Homo sapiens) (UniProt P41143); experiment: DELTA2/H Eurofins SafetyScreen44 (BI); details: Compound concentration 10.0 uM
[7] = molecular target: Tyrosine-protein kinase Lck (Homo sapiens) (UniProt P06239); experiment: LCK_CE Eurofins SafetyScreen44 (BI); details: Compound concentration 10.0 uM
[8] = molecular target: Androgen receptor (Homo sapiens) (UniProt P10275); experiment: ANDROGEN/H Eurofins SafetyScreen44 (BI); details: Compound concentration 10.0 uM
[9] = molecular target: Histamine H2 receptor (Homo sapiens) (UniProt P25021); experiment: H2/APT/HS Eurofins SafetyScreen44 (BI); details: filed as antagonist, Compound concentration 10.0 uM
[10] = molecular target: T2, Alpha-2A adrenergic receptor (Homo sapiens) (UniProt P08913); experiment: ALPHA2A/HU Eurofins SafetyScreen44 (BI); details: Compound concentration 10.0 uM
T2 sequence (whole entry): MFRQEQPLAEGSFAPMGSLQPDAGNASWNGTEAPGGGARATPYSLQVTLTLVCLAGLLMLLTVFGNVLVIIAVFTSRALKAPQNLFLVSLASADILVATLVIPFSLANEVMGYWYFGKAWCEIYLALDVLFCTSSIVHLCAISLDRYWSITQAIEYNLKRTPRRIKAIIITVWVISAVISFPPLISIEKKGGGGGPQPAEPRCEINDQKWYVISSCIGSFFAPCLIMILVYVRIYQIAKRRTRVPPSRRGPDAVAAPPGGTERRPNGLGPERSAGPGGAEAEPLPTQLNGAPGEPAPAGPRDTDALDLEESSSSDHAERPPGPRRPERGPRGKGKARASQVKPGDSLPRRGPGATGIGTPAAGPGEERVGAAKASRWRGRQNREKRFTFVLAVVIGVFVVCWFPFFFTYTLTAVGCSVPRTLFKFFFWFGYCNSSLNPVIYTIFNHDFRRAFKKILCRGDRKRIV

[11] = molecular target: Endothelin-1 receptor (Homo sapiens) (UniProt P25101); experiment: ETA/H Eurofins SafetyScreen44 (BI); details: Compound concentration 10.0 uM
[12] = molecular target: cGMP-inhibited 3',5'-cyclic phosphodiesterase 3A (Homo sapiens) (UniProt Q14432); experiment: PDE3A Eurofins SafetyScreen44 (BI); details: Compound concentration 10.0 uM
[13] = molecular target: T3, Muscarinic acetylcholine receptor M2 (Homo sapiens) (UniProt P08172); experiment: M2/H Eurofins SafetyScreen44 (BI); details: filed as antagonist, Compound concentration 10.0 uM
T3 sequence (whole entry): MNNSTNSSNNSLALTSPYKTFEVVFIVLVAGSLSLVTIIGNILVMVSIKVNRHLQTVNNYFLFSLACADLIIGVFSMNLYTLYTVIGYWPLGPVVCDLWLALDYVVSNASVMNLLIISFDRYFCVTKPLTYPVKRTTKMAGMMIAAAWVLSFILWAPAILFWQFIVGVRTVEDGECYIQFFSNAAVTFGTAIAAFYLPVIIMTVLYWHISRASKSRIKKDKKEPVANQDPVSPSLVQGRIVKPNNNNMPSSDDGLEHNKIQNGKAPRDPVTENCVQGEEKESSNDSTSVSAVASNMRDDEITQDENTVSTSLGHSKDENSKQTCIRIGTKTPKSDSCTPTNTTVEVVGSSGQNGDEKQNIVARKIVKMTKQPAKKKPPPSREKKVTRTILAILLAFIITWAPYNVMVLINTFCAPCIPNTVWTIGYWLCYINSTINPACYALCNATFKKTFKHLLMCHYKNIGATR

[14] = molecular target: 3',5'-cyclic-AMP phosphodiesterase 4D (Homo sapiens) (UniProt Q08499); experiment: PDE4D2 Eurofins SafetyScreen44 (BI); details: Compound concentration 10.0 uM
[15] = molecular target: Amiloride-sensitive sodium channel, ENaC (Homo sapiens, UniProt P37088+P51168+P51170); experiment: Inhibition of Na+ current by Ussing Chamber; assay type: functional, tissue-based, epithelium
[16] = molecular target: Glutamate NMDA receptor (Rattus norvegicus) (UniProt P35439+Q00959+Q00960+Q00961+Q62645+Q8VHN2+Q9R1M7); experiment: NMDA/R Eurofins SafetyScreen44 (BI); assay type: protein-complex assay; details: Compound concentration 10.0 uM
[17] = molecular target: Mu-type opioid receptor (Homo sapiens) (UniProt P35372); experiment: MU/H Eurofins SafetyScreen44 (BI); details: Compound concentration 10.0 uM
[18] = molecular target: D(1A) dopamine receptor (Homo sapiens) (UniProt P21728); experiment: D1/H Eurofins SafetyScreen44 (BI); details: filed as antagonist, Compound concentration 10.0 uM
[19] = molecular target: Cannabinoid receptor 2 (Homo sapiens) (UniProt P34972); experiment: CB2/PERIPH/H Eurofins SafetyScreen44 (BI); details: Compound concentration 10.0 uM

Chain of voltage-gated potassium channel (IKs; KCNQ1/KCNE1 as curated) (Q9Z0N7 whole entry): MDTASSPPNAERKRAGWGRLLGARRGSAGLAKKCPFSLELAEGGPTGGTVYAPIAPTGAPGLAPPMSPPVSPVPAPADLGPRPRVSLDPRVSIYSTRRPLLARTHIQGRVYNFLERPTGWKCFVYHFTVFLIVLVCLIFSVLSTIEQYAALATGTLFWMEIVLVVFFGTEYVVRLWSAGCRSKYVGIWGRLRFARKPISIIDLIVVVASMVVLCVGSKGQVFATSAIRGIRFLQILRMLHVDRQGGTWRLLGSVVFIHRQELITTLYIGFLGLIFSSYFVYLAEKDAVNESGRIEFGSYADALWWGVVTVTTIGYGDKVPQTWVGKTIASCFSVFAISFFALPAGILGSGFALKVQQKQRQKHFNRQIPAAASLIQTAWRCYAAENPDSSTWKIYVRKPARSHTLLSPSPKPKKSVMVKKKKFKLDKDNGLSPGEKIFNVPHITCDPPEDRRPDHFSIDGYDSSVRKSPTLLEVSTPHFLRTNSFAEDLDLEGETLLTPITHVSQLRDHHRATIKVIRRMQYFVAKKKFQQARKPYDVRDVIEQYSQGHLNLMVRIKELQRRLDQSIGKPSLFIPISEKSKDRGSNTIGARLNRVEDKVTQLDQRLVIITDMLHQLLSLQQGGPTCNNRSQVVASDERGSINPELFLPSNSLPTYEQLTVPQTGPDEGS
Chain of voltage-gated potassium channel (IKs; KCNQ1/KCNE1 as curated) (P15383 whole entry): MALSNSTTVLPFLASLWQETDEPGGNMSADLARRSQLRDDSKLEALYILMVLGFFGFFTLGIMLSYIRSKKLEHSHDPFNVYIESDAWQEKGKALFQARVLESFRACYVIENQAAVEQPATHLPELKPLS
Chain of Delta-type opioid receptor (Homo sapiens) (P41143 whole entry): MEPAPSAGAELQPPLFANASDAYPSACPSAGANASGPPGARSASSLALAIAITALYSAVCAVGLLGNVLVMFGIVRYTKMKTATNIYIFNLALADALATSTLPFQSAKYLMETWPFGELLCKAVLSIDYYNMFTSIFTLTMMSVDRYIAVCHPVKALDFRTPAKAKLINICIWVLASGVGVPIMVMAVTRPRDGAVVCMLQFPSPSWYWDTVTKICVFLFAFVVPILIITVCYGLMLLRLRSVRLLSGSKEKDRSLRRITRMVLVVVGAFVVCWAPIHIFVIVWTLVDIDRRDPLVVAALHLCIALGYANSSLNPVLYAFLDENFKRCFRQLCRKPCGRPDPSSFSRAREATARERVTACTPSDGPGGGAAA
Chain of Amiloride-sensitive sodium channel, ENaC (P37088 whole entry): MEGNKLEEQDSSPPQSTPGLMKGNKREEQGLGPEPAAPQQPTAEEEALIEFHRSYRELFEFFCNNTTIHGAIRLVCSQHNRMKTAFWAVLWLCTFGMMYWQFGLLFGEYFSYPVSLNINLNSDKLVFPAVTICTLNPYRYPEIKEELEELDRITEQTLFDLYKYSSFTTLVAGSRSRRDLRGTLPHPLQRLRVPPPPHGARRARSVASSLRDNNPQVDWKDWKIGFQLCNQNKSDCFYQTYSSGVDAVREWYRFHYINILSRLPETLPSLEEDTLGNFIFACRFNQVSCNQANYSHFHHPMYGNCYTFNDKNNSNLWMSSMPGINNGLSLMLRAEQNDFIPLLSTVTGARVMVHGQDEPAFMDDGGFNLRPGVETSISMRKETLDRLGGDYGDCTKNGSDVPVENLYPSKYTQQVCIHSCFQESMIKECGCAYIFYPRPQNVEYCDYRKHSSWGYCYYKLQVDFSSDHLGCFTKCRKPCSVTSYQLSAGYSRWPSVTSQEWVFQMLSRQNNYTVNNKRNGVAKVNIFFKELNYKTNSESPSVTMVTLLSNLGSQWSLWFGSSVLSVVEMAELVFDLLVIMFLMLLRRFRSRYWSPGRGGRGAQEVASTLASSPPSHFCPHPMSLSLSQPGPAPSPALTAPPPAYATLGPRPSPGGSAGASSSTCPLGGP
Chain of Amiloride-sensitive sodium channel, ENaC (P51168 whole entry): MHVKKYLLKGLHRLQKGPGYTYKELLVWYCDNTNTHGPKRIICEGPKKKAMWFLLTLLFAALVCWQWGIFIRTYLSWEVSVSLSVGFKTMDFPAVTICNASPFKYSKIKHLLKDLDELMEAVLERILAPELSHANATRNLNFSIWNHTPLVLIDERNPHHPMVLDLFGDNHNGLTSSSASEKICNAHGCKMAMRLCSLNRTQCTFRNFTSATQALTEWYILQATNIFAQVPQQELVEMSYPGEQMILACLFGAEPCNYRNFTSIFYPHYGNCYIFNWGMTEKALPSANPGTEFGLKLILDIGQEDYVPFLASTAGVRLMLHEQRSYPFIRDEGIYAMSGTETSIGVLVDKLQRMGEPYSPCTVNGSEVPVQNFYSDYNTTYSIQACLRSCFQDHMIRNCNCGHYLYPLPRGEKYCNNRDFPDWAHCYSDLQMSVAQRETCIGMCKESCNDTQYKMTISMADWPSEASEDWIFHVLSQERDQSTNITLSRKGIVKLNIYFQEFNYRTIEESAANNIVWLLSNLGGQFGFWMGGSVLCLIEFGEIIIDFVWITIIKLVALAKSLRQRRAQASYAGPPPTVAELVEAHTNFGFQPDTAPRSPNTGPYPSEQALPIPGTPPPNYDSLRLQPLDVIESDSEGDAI
Chain of Amiloride-sensitive sodium channel, ENaC (P51170 whole entry): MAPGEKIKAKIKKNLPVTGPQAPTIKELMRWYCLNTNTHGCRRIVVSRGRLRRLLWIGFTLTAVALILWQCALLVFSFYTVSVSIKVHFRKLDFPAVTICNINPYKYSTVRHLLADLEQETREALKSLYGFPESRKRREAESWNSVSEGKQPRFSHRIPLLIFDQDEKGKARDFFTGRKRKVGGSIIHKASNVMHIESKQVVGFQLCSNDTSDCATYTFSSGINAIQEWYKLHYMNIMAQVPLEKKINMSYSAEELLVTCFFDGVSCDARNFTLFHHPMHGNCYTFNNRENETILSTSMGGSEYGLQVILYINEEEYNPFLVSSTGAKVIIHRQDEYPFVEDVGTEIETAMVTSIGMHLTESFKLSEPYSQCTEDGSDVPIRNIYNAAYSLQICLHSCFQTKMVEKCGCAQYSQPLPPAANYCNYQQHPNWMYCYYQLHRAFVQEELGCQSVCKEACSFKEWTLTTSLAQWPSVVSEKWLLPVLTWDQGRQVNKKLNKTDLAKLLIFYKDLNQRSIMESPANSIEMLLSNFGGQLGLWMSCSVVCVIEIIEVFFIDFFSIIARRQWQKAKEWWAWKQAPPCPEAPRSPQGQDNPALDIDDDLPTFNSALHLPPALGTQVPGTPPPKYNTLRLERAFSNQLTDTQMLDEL
Chain of D(1A) dopamine receptor (Homo sapiens) (P21728 whole entry): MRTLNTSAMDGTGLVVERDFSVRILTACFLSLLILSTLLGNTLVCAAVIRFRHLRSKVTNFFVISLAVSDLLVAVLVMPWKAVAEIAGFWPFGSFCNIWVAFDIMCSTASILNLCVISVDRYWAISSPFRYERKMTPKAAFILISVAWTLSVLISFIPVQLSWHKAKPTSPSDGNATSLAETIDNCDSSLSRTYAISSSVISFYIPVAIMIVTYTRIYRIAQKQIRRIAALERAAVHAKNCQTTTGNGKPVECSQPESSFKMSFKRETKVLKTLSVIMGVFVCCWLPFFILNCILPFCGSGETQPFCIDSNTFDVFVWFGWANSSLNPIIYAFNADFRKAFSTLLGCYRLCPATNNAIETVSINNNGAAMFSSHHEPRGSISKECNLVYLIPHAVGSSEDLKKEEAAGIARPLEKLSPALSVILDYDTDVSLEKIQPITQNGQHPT
Chain of Tyrosine-protein kinase Lck (Homo sapiens) (P06239 2-509 limits assumed): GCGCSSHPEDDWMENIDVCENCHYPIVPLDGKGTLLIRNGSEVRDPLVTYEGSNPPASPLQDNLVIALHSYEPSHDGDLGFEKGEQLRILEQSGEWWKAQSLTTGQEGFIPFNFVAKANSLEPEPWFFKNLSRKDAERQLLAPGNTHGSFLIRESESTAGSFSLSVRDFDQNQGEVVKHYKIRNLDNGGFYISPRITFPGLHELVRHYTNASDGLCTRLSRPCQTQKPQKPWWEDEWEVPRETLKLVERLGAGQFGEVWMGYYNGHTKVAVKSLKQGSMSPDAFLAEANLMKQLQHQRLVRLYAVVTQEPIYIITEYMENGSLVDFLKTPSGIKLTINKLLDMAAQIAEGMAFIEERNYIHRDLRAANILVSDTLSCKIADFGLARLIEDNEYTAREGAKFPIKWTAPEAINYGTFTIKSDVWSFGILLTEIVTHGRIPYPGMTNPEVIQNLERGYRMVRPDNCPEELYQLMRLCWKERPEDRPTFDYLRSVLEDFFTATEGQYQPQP
Chain of Histamine H1 receptor (Homo sapiens) (P35367 whole entry): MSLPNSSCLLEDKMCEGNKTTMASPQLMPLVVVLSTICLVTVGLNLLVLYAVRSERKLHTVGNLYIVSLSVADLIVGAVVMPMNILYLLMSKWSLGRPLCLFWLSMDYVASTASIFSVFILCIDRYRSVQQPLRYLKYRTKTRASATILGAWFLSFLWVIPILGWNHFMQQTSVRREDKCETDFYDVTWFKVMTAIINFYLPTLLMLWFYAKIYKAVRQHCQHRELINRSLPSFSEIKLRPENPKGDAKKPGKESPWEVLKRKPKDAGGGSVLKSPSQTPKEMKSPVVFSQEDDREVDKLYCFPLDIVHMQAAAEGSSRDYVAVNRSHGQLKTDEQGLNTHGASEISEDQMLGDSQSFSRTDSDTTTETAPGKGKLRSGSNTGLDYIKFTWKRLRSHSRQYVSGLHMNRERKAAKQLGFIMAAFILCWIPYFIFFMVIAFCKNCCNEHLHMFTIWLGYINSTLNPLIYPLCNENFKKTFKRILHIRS
Chain of Beta-2 adrenergic receptor (Homo sapiens) (P07550 whole entry, looked up): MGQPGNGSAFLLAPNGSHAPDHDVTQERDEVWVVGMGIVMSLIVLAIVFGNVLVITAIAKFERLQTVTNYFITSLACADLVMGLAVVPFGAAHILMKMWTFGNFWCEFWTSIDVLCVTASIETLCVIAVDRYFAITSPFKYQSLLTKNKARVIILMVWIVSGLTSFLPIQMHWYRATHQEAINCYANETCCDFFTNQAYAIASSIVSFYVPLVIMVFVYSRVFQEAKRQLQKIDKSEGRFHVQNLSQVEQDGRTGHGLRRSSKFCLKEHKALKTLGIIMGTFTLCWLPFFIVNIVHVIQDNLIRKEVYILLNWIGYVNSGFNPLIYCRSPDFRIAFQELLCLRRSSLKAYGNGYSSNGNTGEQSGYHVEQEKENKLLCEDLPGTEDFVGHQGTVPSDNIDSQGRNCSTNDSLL

IC50 [15]	Compound	residual activity [1] [%]	residual activity [2] [%]	residual activity [3] [%]	activity at 10 µM [4]	residual activity [5] [%]	residual activity [6] [%]	residual activity [7] [%]	residual activity [8] [%]	residual activity [9] [%]	residual activity [10] [%]	residual activity [11] [%]	residual activity [12] [%]	residual activity [13] [%]	residual activity [14] [%]	residual activity [16] [%]	residual activity [17] [%]	residual activity [18] [%]	residual activity [19] [%]
0.017 µM (active)	CCn1c(CNC(=O)c2nc(Cl)cnc2N)[n+](CC)c2ccc(C(=O)N(C)CCN(C)C)cc21	94	45	101	99% (not active)	105	95	95	106	117	112	100	100	36	99	105	95	103	119
> 10 µM (not active)	CCn1c(CNC(=O)c2ncc(C)nc2N)[n+](CC)c2ccc(C(=O)N(C)CN(C)C)cc21	104	63	94	103% (not active)	91	97	60	99	120	97	104	87	41	87	100	95	102	96
